Results reported in publication PMC3864932, “Identification of Crucial Amino Acids in Mouse Aldehyde Oxidase 3 That Determine Substrate Specificity” (PLoS ONE, 2013).
Substitutions are numbered along the chain they refer to. Names may count otherwise. Where two headings read alike, the source gives them in different places. Blank lines part the entries; values can stand above or below the molecule they belong to.

Experiments:
mAOX3-FeSI-mAOX1 [1] = system: T1, mAOX3-FeSI-mAOX1; experiment: steady-state kinetics, DCPIP reduction at […] nm; type: biochemical, Mus musculus; settings: 100 µM DCPIP as electron acceptor, 50 mM Tris-HCl pH 8.0, 1 mM EDTA, 37 °C; kcat corrected for Mo content
T1 construct: gene Aox3; mAOX3 with A87-Q214 replaced by T83-Q213 of mAOX1 (FeSI domain); N-terminal His6-tag; E. coli; dimer

mAOX3-FeSII-FeSI-mAOX1 [2] = system: T2, mAOX3-FeSII-FeSI-mAOX1; experiment: steady-state kinetics, DCPIP reduction at […] nm; type: biochemical, Mus musculus; settings: 100 µM DCPIP as electron acceptor, 50 mM Tris-HCl pH 8.0, 1 mM EDTA, 37 °C; kcat corrected for Mo content
T2 construct: gene Aox3; mAOX3 with M1-Q214 replaced by M1-Q213 of mAOX1 (both FeS domains); N-terminal His6-tag; E. coli; dimer

mAOX3-FeSII-mAOX1 [3] = system: T3, mAOX3-FeSII-mAOX1; experiment: steady-state kinetics, DCPIP reduction at […] nm; type: biochemical, Mus musculus; settings: 100 µM DCPIP as electron acceptor, 50 mM Tris-HCl pH 8.0, 1 mM EDTA, 37 °C, kcat corrected for Mo content
T3 construct: gene Aox3; mAOX3 with M1-P80 replaced by M1-P76 of mAOX1 (FeSII domain); N-terminal His6-tag; E. coli; dimer

mAOX3-FeSII-FeSI-mAOX1 [4] = system: T4, mAOX3-FeSII-FeSI-mAOX1; settings: read-out: mAOX3-FeSII-FeSI-mAOX1; O2 (air-saturated buffer) as electron acceptor, 50 mM Tris-HCl pH 8.0, 1 mM EDTA, 37 °C; kcat corrected for Mo content
T4 construct: gene Aox3

mAOX3-FeSI-mAOX1 [5] = system: T5, mAOX3-FeSI-mAOX1; settings: read-out: mAOX3-FeSI-mAOX1; O2 (air-saturated buffer) as electron acceptor, 50 mM Tris-HCl pH 8.0, 1 mM EDTA, 37 °C; kcat corrected for Mo content
T5 construct: gene Aox3

mAOX3-FeSII-mAOX1 [6] = system: T6, mAOX3-FeSII-mAOX1; settings: read-out: mAOX3-FeSII-mAOX1; O2 (air-saturated buffer) as electron acceptor, 50 mM Tris-HCl pH 8.0, 1 mM EDTA, 37 °C; kcat corrected for Mo content
T6 construct: gene Aox3

purified protein [7] = substrate: c1ccc2c(c1)cnc1ccccc12; experiment: purified protein; settings: O2 (air-saturated buffer) as electron acceptor, 50 mM Tris-HCl pH 8.0, 1 mM EDTA, 37 °C, kcat corrected for Mo content
purified protein [8] = substrate: C[n+]1cccc(C(N)=O)c1; experiment: purified protein; type: biochemical, Mus musculus; settings: 100 µM DCPIP as electron acceptor, 50 mM Tris-HCl pH 8.0, 1 mM EDTA, 37 °C, kcat corrected for Mo content
purified protein [9] = substrate: c1ccc2cnncc2c1; experiment: purified protein; type: biochemical, Mus musculus; settings: 100 µM DCPIP as electron acceptor, 50 mM Tris-HCl pH 8.0, 1 mM EDTA, 37 °C, kcat corrected for Mo content

Km (mAOX3-FeSI-mAOX1 [1]): 1.2 ± 0.1 µM
Km (mAOX3-FeSII-FeSI-mAOX1 [2]): 1 ± 0.1 µM
Km (mAOX3-FeSII-mAOX1 [3]; read-out: mAOX3-WT ^4): 1.4 ± 0.2 µM
Molecule: c1ccc2cnncc2c1 [phthalazine]

Molecule: O=c1[nH]cnc2[nH]ncc12 [allopurinol]
Km (mAOX3-FeSI-mAOX1 [1]): 1340 ± 43 µM

Km (mAOX3-FeSII-FeSI-mAOX1 [4]): 28 ± 2 µM
Km (mAOX3-FeSI-mAOX1 [5]): 35 ± 2 µM
Km (mAOX3-FeSII-mAOX1 [6]): 30 ± 5 µM
Molecule: c1ccc2c(c1)cnc1ccccc12 [phenanthridine]

Molecule: O=Cc1ccccc1 [benzaldehyde]
Km (mAOX3-FeSI-mAOX1 [1]): 3.6 ± 0.3 µM
Km (mAOX3-FeSII-FeSI-mAOX1 [2]): 2.2 ± 0.1 µM
Km (mAOX3-FeSII-mAOX1 [3]; read-out: mAOX3-FeSII-mAOX1): 1.6 ± 0.1 µM

B1: mAOX3 (mouse aldehyde oxidase 3) (Mus musculus; P1015G) (protein)
chain: MSPSKESDELIFFVNGKKVTERNADPEVNLLFYLRKVIRLTGTKYGCGGGDCGACTVMISRYDPISKRISHFSATACLVPICSLHGAAVTTVEGIGSTKTRIHPVQERIAKGHGTQCGFCTPGMVMSIYTLLRNHPEPSTEQIMETLGGNLCRCTGYRPIVESAKSFCPSSTCCQMNGEGKCCLDEEKNEPERKNSVCTKLYEKKEFQPLDPTQELIFPPELMRMAEESQNTVLTFRGERTTWIAPGTLNDLLELKMKHPSAPLVIGNTYLGLHMKFTDVSYPIIISPARILELFVVTNTKQGLTLGAGLSLTQVKNVLSDVVSRLPKEKTQIYCALLKQLKTLAGQQIRNVASLGGHIISRLPTSDLNPILGIGNCILNVASTEGIQQIPLNDHFLAGVPDAILKPEQVLISVFVPRSSKWEFVSAFRQAPRQQNAFATVNAGMKVVFKEDTNTITDLGILYGGIGATVISADKSCRQLIGRCWDEEMLDDAGKMICEEVSLLMAAPGGMEEYRKTLAISFLFMFYLDVLKQLKTRDPHKYPDISQKLLHILEDFPLTMPYGMQSFQDVDFQQPLQDPIGRPIMHQSGIKHATGEAVFCDDMSVLPGELFLAVVTSSKSHAKIISLDASEALASLGVVDVVTARDVPGDNGREEESLYAQDEVICVGQIVCAVAADSYAHAQQAAKKVKIVYQDIEPMIVTVQDALQYESFIGPERKLEQGNVEEAFQCADQILEGEVHLGGQEHFYMETQSVRVVPKGEDKEMDIYVSSQDAAFTQEMVARTLGIPKNRINCHVKRVGGAFGGKASKPGLLASVAAVAAQKTGRPIRFILERRDDMLITGGRHPLLGKYKIGFMNNGKIKAADIQLYINGGCTPDDSELVIEYALLKLENAYKIPNLRVRGRVCKTNLPSNTAFRGFGFPQGAFVTETCMSAVAAKCRLPPEKVRELNMYRTIDRTIHNQEFDPTNLLQCWEACVENSSYYNRKKAVDEFNQQRFWKKRGIAIIPMKFSVGFGKTFYYQAAALVQIYTDGSVLVAHGGVELGQGINTKMIQVASRELKIPMSYIHLDEMSTVTVPNTVTTGASTGADVNGRAVQNACQILMKRLEPIIKQNPSGTWEEWVKEAFVQSISLSATGYFRGYQADMDWEKGEGDIFPYFVFGAACSEVEIDCLTGAHKNIRTDIVMDGSFSINPAVDIGQIEGAFVQGLGLYTLEELKYSPEGVLYTRGPHQYKIASVTDIPEEFHVSLLTPTPNPKAIYSSKGLGEAGTFLGCSVFFAIAAAVAAAREERGLSPIWAINSPATAEVIRMACEDQFTNLVPQTDSKCCKPWSIPVA
Km (purified protein [7]): 47 ± 2 µM
kcat (purified protein [7]): 8.83 s⁻¹
kcat/Km (purified protein [7]): 189000 M⁻¹ s⁻¹

B2: mAOX3 (mouse aldehyde oxidase 3) (Mus musculus; P1015A) (protein)
chain: B1 chain with G1015A
notes: N-terminal His6-tag, full length, plasmid pMMA1, expressed in E. coli; homodimer with Moco, two [2Fe-2S], FAD
Km (purified protein [8]): 87 ± 3.4 µM
kcat (purified protein [8]): 1.08 ± 0.183 s⁻¹
kcat/Km (purified protein [8]): 12400 ± 2200 M⁻¹ s⁻¹

B3: mAOX3 (mouse aldehyde oxidase 3) (Mus musculus; F1014V) (protein)
chain: B1 chain with F1014V, G1015P
notes: as for B2
Km (purified protein [9]): 12.5 ± 0.6 µM
kcat (purified protein [9]): 4.63 ± 0.233 s⁻¹
kcat/Km (purified protein [9]): 372000 ± 25000 M⁻¹ s⁻¹
